These results are taken from patent US5059442A, “Primary amide esters as low calorie fat mimetics” (Nabisco Brands, Inc., priority 1989, dated 1991).

Series [1] relates to porcine pancreatic lipase. Briefly: in vitro digestibility: hydrolysis with pancreatic lipase. Type of series: in vitro ADME. To be noted: pH 7.1 buffer, 37° C., in 10 minutes. The method, then: (§1) This example outlines the procedure for estimating the in vitro digestibility of the synthetic fat mimetics of this invention.
(§2) 1. Buffer: A pH 7.1 phosphate buffer is prepared by dissolving 6.8 g KH2 PO4 in 1 L of millipore filtered water (to yield 0.05 M phosphate). Fifty mg Ca(NO3)2 is added and 5.0 g cholic acid (Na salt, an ox bile isolate from Sigma) to give 0.3 mM Ca++ and 0.5 % cholic acid in 0.05 M phosphate. The pH is adjusted to approximately 7.1 with solid NaOH. Several drops of Baker "Resi-analyzed" toluene are added to prevent bacterial growth during storage at 3°-5° C. 2. Lipase: About 15 mg/mL commercial porcine pancreatic lipase from U.S. Biochemical Corporation is dissolved in buffer.
(§3) 3. Substrates and Standards: A 1.0 mL volumetric flask is charged with an amount of lipid substrate calculated to give a concentration of 200 nanomoles per microliter in Baker "Resianalyzed" toluene. (The proper concentration may be approximated by doubling the molecular weight of the lipid in question, dividing by 10, and diluting to the mark; this yields about 200 nanomoles per microliter.) This preparation affords the substrate to be used in the hydrolysis reactions.
(§4) Fatty acids and glyceride standards from Nu Chek or Sigma are prepared for elution on TLC plates (prewashed with 1:1 chloroform/methanol) by diluting the substrate solution with 10:1 toluene (1 part substrate plus 9 parts toluene) in septum vials.
(§5) In a 25 mL Erlenmeyer, emulsify 20 mL buffer and 40 microliters of substrate using an ultrasonic disrupter at a microtip maximum setting for approximately 10 seconds. […] Place in a 37° C. water bath and stir vigorously. After temperature equilibration, add 40 microliters of enzyme solution and start timing. Remove 5.0 mL aliquots at convenient time intervals for analysis. To establish a standard curve for triolein, aliquots are taken at 10, 20, 30 and 40 minutes.
(§6) Add the aliquot to a 15 mL glass centrifuge tube containing a drop of concentrated HCl. Add approximately 3 mL of a 2:1 mixture of CHCl3 :CH3 OH and shake vigorously. Centrifuge at approximately 5000 rpm for 5 minutes and transfer the bottom layer with a Pasteur pipet to a 5 mL septum vial. Repeat the extraction step once and combine the two bottom layers. Evaporate the solvent in nitrogen gas. After about half of the solvent is removed, add an equivalent volume absolute ethanol and continue evaporation in a nitrogen stream until dryness is achieved. Samples may be warmed with a heat gun to facilitate drying.
(§7) When the samples are dry, add exactly 200 microliters of toluene containing 10% DMSO, cap tightly, and spot TLC plate with 2.0 microliters per channel. […]

For series [2] the following is noted: rat, in vivo; cited from earlier work.
Series [3] can be described thus: in vitro digestibility: hydrolysis with pancreatic lipase. Type of series: in vitro ADME, porcine. To be noted: pig, pH 7.1 buffer, 37° C., same conditions as triolein control. The method, then:
as §1, §2, §3, §4, §5, §6, §7

The nature of series [4]: in vivo animal feeding study for caloric availability. Further details: species or system male Sprague-Dawley rats. To be noted: rats, diet of 50% fort and 21% test compound, 14 days; from weight gain and corn oil base line correlation. The text has this:
This example illustrates how the novel fat mimetics of this invention are screened for caloric availability by a carefully controlled in vivo animal feeding study.
An experimental relationship between total calories ingested and animal body weight gain is established by monitoring the body weight gain associated with consumption of a nutritionally balanced diet containing varying concentrations of a reference substance such as corn oil which has a known caloric availability. Correlations between total calories ingested and body weight gain are excellent (r=0.99).
Caloric availability of a test material is evaluated by substituting a specific weight of the test material for the reference substance and observing the body weight gain. The gain in body weight is equated to a total number of calories using the correlation previously established for the reference data. The estimated number of calories ingested are divided by the weight of test material to give the apparent calories per gram for the test material. Generally speaking, in these bioavailability studies, the degree of perianal pelt soiling correlates with reduced bioavailability.
The test animals are six-week-old male Sprague-Dawley rats obtained from the Portage, Michigan facility of the Charles River Laboratories, Inc. After acclimation for 15 days, the test duration is 14 days. […]

`CCCCCCCC/C=C\CCCCCCCC(=O)OCC(COC(=O)CCCCCCC/C=C\CCCCCCCC)OC(=O)CCCCCCC/C=C\CCCCCCCC` [triolein]: the “hydrolysis of triglyceride control” value in series [1] is listed as “substantially hydrolyzed”. As for corn oil, the “caloric availability of reference substance” value in series [2] was 9.0 kcal/gm. In the case of `CCCCCCCC/C=C\CCCCCCCC(=O)NC(C)(COC(=O)CCCCCCC/C=C\CCCCCCCC)COC(=O)CCCCCCC/C=C\CCCCCCCC` [Example 4, 2-Methyl-1,3-bis(oleoyloxy)propyl 2-oleamide], the metabolised in series [3] was 10%.

In turn, `CCCCCCCC/C=C\CCCCCCCC(=O)NC(COC(=O)CCCCCCC/C=C\CCCCCCCC)COC(=O)CCCCCCC/C=C\CCCCCCCC` [Example 3, 1,3-Bis(oleoyloxy)propyl 2-oleamide] yielded a metabolised in series [3] of 50%. Regarding `CCCCCCCC/C=C\CCCCCCCC(=O)NCC(COC(=O)CCCCCCC/C=C\CCCCCCCC)OC(=O)CCCCCCC/C=C\CCCCCCCC` (stereo not drawn) [Example 2, 2,3-Bis(oleyoyloxy)propyl oleamide], in series [4], the “caloric availability (kcal/gram upon being metabolized)” value is recorded as “about 3.3 kcal/gram”. Moreover, the metabolised in series [3] turned out to be 50%.
